US20240254510A1, “METHODS FOR GENERATING MECHANICALLY-RESPONSIVE CELLS AND USES THEREOF” (Washington University, priority 2021, published 2024)

Assays:
TRPV4 [1] = target: T1, TRPV4 (Sus scrofa, UniProt B3VP30); test: Microarray transcriptomic profile of engineered cartilage after mechanical loading or GSK101; assay type: cell-based, porcine
T1 construct: endogenous in cells; host or cells: primary porcine articular chondrocytes (femurs of pigs from a local abattoir)
Excerpt: TRPV4 activation in chondrocytes induces transient anabolic and inflammatory signaling networks: Next, it was sought to understand the time course of specific downstream signaling pathways and GRNs regulated by mechanical activation of TRPV4 using microarray analysis. Because TRPV4 is a multimodal channel, downstream signaling is likely dependent on the activation mode as well as cell and tissue type. For these studies, primary porcine chondrocytes were cast in agarose to create engineered cartilage constructs and subjected to either compressive mechanical loading [10% sinusoidal peak-to-peak strain at 1 Hz for 3 hours as described previously] or pharmacologic stimulation with the TRPV4 agonist GSK101 (1 nM for 3 hours), or left unloaded (free-swelling controls), and measured the transcriptional activity at 0, 3, 12, and 20 hours following an initial round of stimulation and then at 24 and 72 hours after additional daily bouts of mechanical loading or GSK101 (n=3 per condition per time point; FIG. 3A). […] Up-regulation of these targets was immediate and subsided quickly, with transcript levels returning to baseline 12 to 20 hours after activation.
Microarray collection and analysis: After a 14-day preculture, engineered cartilage constructs (04 mm×2.25 mm) were stimulated under 10% compressive loading or 1 nM GSK101 for 3 hours per day for 3 days. Unstimulated controls (free-swelling) constructs were cultured under identical conditions. Immediately after stimulation, constructs were washed and then fed with culture medium. Constructs were snap-frozen in liquid N2 at 0, 3, 6, 12, 20, 24, and 72 hours after initial stimulation. Total RNA was extracted from the constructs using a pestle homogenizer and the Norgen Biotek RNA/protein purification plus kit. RNA quantity and quality were assessed with NanoDrop (Thermo Fisher Scientific) and the Agilent Bioanalyzer. Total RNA was processed using the Ambion WT expression labeling kit and the Porcine Gene 1.0 ST Array (Affymetrix). […]

TRPV4 [2] = target: T1, TRPV4; test: IL-1Ra production by mechanogenetic cartilage constructs (ELISA); assay type: cell-based, porcine; settings: NFKBr-IL1Ra tissues, 1 nM GSK101 3 hours/day over 5 days vs DMSO
Excerpt: Synthetic mechanogenetic circuits respond to TRPV4 activation to drive transgene expression: TRPV4 activation in response to mechanical loading up-regulates a diverse group of targeted genes. On the basis of the TRPV4-activated signaling pathway, activation of the nuclear factor κ light chain enhancer of activated B cells (NF-κB) pathway was identified and up-regulation of the prostaglandin-endoperoxide synthase 2 (PTGS2) gene as two distinct avenues to construct TRPV4-responsive synthetic mechanogenetic gene circuits. […]
Osmotic stimulation—For calcium imaging studies, osmotic loading media were prepared using Hanks' balanced salt solution medium (Gibco). […] These media were titrated to hypo-osmotic media by adding distilled water and measured with a freezing point osmometer (Osmette 2007; Precision Systems). […]
Mechanogenetic circuit testing outcome measures: Assessing mechanogenetic tissue construct activation in IL-1Ra-producing constructs was measured with an enzyme-linked immunosorbent assay for mouse IL-1Ra (R&D Systems) according to the manufacturer's protocols. […]

TRPV4 [3] = test: RNA-sequencing of tissue engineered cartilage: mechanical loading, GSK101, IL-1α; assay type: cell-based; settings: GSK101 TRPV4 activation, 24 hour time course
Procedure: RNA-sequencing was performed to assess mechanically-sensitive gene targets that are distinct from a cellular inflammation response. […] Targets of interest were selected as targets that were shared between stimulation to mechanical loading and GSK101 agonist activation of TRPV4 but not stimulated by IL-1α inflammation.

Piezo1 = test: RNA-seq of tissue engineered cartilage after 80% strain or Yoda1 stimulation; assay type: cell-based; settings: 80% strain or Yoda1, RNA-seq
Procedure: Tissue engineered cartilage tissues were either mechanically loaded to 80% strain or stimulated with the Piezo1 agonist Yoda1. Control tissues (FS group) were cultured in vehicle control media and left under free-swelling (non loaded) conditions. RNA-seq was used to assess the transcriptomic regulation to high mechanical loading or Yoda1-stimulation.
Volcano plot projections of gene targets that are differentially regulated by mechanical loading to 80% strain (FIG. 9 left graph) or Yoda1 stimulation (FIG. 9 right graph) display a range of targets that are regulated by Piezo1 stimulation (targets highlighted in red are |LFC|>1 and FDR (padj)<0.05).

T1 sequence (B3VP30 1-871): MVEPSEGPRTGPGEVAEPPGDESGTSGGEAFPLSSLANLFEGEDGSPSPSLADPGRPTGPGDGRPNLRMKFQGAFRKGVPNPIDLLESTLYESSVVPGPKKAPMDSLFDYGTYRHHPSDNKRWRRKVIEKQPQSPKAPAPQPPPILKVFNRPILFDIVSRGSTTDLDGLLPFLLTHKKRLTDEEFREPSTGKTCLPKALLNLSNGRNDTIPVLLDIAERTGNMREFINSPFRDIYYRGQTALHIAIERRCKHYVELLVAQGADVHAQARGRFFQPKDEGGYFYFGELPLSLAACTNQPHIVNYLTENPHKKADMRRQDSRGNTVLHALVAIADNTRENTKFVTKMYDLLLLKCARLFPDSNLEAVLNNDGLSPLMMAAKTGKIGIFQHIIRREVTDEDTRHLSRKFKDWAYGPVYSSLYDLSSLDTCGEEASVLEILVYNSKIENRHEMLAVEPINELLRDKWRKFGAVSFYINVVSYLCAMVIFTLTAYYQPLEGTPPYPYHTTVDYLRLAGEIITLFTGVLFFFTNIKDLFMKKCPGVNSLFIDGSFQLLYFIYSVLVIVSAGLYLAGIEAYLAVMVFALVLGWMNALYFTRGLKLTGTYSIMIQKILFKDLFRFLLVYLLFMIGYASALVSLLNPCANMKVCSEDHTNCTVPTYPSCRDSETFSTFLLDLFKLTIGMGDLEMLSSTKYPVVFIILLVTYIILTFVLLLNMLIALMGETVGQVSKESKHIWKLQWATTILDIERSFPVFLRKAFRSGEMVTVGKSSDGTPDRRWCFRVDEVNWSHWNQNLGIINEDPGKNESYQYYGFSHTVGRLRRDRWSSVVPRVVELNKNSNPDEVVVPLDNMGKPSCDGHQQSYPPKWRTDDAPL

Structure (SMILES): CC(C)C[C@H](NC(=O)c1cc2ccccc2s1)C(=O)N1CCN(C(=O)[C@H](CO)NS(=O)(=O)c2ccc(Cl)cc2Cl)CC1 [GSK101]
- genes commonly responsive to both mechanical loading and pharmacologic activation of TRPV4 (TRPV4 [1]; 0, 24 and 72 hours): 15 genes
- transcripts repeatedly responsive to GSK101 supplementation (TRPV4 [1]; 0, 24 and 72 hours, daily bouts of 1 nM GSK101): 112 transcripts
- transcripts up-regulated under both mechanical loading and pharmacologic stimulation (TRPV4 [1]; first 20 hours after initial stimulation, GSK101 1 nM for 3 hours, vs unloaded controls): 43 transcripts
- circuit response to pharmacologic activation of TRPV4 (TRPV4 [2]): activated the NFKBr-IL1Ra circuit
- regulation of FGF1, PMEPA1 and snora70 (TRPV4 [3]): significantly upregulated

Structure (SMILES): Clc1cccc(Cl)c1CSc1nnc(-c2cnccn2)s1 [Yoda1]
- gene targets similarly regulated by mechanical loading and Yoda1 stimulation (Piezo1): ADAMTS1, IGSF9B, PTGS2, NR4A2, LOC100512181, NR4A1, INHBA, and CSRNP2
